Measured values: publication PMC5065130, “Functional Trade-Offs in Promiscuous Enzymes Cannot Be Explained by Intrinsic Mutational Robustness of the Native Activity” (PLoS Genetics, 2016)

Target: T1, wtPTE (Brevundimonas diminuta, UniProt P0A434)
T1 construct: gene opd; synthetic gene in pET-Strep vector, expressed in E. coli BL21 (DE3) with GroEL/ES, ZnCl2 in medium; clarified lysate
Assay: absorbance at […] nm, p-nitrophenolate release, initial rate in clarified lysate
Assay type: biochemical
Conditions: 180 uM substrate; Tris-HCl pH 7.5 lysis buffer, 0.1% Triton X-100; native activity

## CCOP(=O)(OCC)Oc1ccc([N+](=O)[O-])cc1 [paraoxon]
  absorbance at 405 nm, p-nitrophenolate release, initial rate in clarified lysate: wtPTE catalyzes the hydrolysis of paraoxon (PTE activity).
